What follows are molecules tested on SU-DHL-4 cells (assay: Inhibitory effect on cell viability in SU-DHL-4 cell line (Test Example 1)). Settings: Homo sapiens; SU-DHL-4 cells, 72 hours, Cell Counting Kit-8; concentration showing 90% inhibition of cell viability; read-out: SU-DHL-4 Cell Viability Inhibition Rate IC90.
Format: cell-based, human
Description: SU-DHL-4 cells (Code No. ACC 495, Deutsche Sammlung von Mikroorganismen and Zellkulturen GmbH; DSMZ) were cultured at 37° C. using a carbon dioxide incubator (95% air, 5% CO2) in RPMI1640 medium (Code No. 11875-093, Thermo Fisher Scientific) in which inactivated fetal bovine serum (FBS: Code No. 10099-148, Thermo Fisher Scientific) in an amount to give a final concentration of 10 vol % and penicillin/streptomycin solution (PS: […] The cells were passaged twice a week at a volume of 20-40 mL so as to maintain a cell concentration of 1×10^6 cells/mL or less. […] After seeding, the cells were precultured at 37° C. in a carbon dioxide gas incubator for 18 to 25 hours. […] At this time, the final concentration of DMSO was adjusted to be 0.1 vol %. After adding the test compound, the cells were cultured at 37° C. in a carbon dioxide gas incubator for 72 hours. Next, 0.020 mL of Cell Counting Kit-8 (Code No. CK04, DOJINDO) solution diluted 2-fold or 4-fold with phosphate buffered saline (PBS) was added to each well. Color reaction was carried out in a carbon dioxide gas incubator at 37° C. for 2 to 3 hours, and the absorbance at a wavelength of 450 nm was measured using SpectraMax 340PC (Molecular Devices). […] Absorbance of a well containing test compound • B: Absorbance of a well without addition of cells • C: Absorbance of a well without addition of test compound

IC90 [nM] | SMILES
5.14 | CCC(=O)N1c2ccccc2[C@H](NCC23CC(C(=O)N4CC(C(=O)Nc5ccc(N[C@@H]6C[C@H](C)N(C(=O)CC)c7ccccc76)cc5)C4)(C2)C3)C[C@@H]1C (relative stereo) [Compound 17n, 1-(3-((((2S,4R)-2-Methyl-1-propionyl-1,2,3,4-tetrahydroquinolin-4-yl)amino)methyl)bicyclo[1.1.1]pentane-1-carbonyl)-N-(4-(((2S*,4R*)-2-methyl-1-propionyl-1,2,3,4-tetrahydroquinolin-4-yl)amino)phenyl)azetidine-3-carboxamide]

Same assay, conditions: SU-DHL-4 cells, 72 hours, Cell Counting Kit-8; concentration showing 90% inhibition of cell viability; read-out: SU-DHL-4 Cell Viability Inhibition Rate IC90

SMILES | IC90 [nM]
Cc1sc2c(c1C)C(c1ccc(C(=O)NC3CCN(C(=O)c4ccc(C5=N[C@@H](CC(=O)OC(C)(C)C)c6nnc(C)n6-c6sc(C)c(C)c65)cc4)CC3)cc1)=N[C@@H](CC(=O)OC(C)(C)C)c1nnc(C)n1-2 [Compound 1i, tert-Butyl 2-((S)-4-{4-[4-(4-{(S)-6-[2-(tert-butoxy)-2-oxoethyl]-2,3,9-trimethyl-6H-thieno[3,2-f][1,2,4]triazolo[4,3-a][1,4]diazepin-4-yl}benzamide)piperidine-1-carbonyl]phenyl}-2,3,9-trimethyl-6H-thieno[3,2-f][1,2,4]triazolo[4,3-a][1,4]diazepin-6-yl)acetate] | 0.54
CCC(=O)N1c2ccccc2[C@H](Nc2ccc(C(=O)N[C@H]3C[C@H](NC(=O)c4ccc(N[C@@H]5C[C@H](C)N(C(=O)CC)c6ccccc65)cc4)C3)cc2)C[C@@H]1C [Compound 1j, N,N′-[(1r,3r)-Cyclobutane-1,3-diyl]bis(4-{[(2S,4R)-2-methyl-1-propionyl-1,2,3,4-tetrahydroquinolin-4-yl]amino}benzamide)] | 33.1
CCC(=O)N1c2ccccc2[C@H](Nc2ccc(C(=O)NCCNC(=O)c3ccc(C4=N[C@@H](CC(=O)OC(C)(C)C)c5nnc(C)n5-c5sc(C)c(C)c54)cc3)cc2)C[C@@H]1C [Compound 1o, tert-Butyl 2-[(S)-2,3,9-trimethyl-4-(4-{[2-(4-{[(2S,4R)-2-methyl-1-propionyl-1,2,3,4-tetrahydroquinolin-4-yl]amino}benzamide)ethyl]carbamoyl}phenyl)-6H-thieno[3,2-f][1,2,4]triazolo[4,3-a][1,4]diazepin-6-yl]acetate] | 3.18
Cc1sc2c(c1C)C(c1ccc(NC(=O)CNC(=O)c3ccc(C4=N[C@@H](CC(=O)OC(C)(C)C)c5nnc(C)n5-c5sc(C)c(C)c54)cc3)cc1)=N[C@@H](CC(=O)OC(C)(C)C)c1nnc(C)n1-2 [Compound 2b, tert-Butyl 2-[(S)-4-{4-[2-(4-{(S)-6-[2-(tert-butoxy)-2-oxoethyl]-2,3,9-trimethyl-6H-thieno[3,2-f][1,2,4]triazolo[4,3-a][1,4]diazepin-4-yl}benzamide)acetamide]phenyl}-2,3,9-trimethyl-6H-thieno[3,2-f][1,2,4]triazolo[4,3-a][1,4]diazepin-6-yl]acetate] | 1.52
CCC(=O)N1c2ccccc2[C@H](Nc2ccc(NC(=O)N3CC(NC(=O)C4CCC(N[C@@H]5C[C@H](C)N(C(=O)CC)c6ccccc65)CC4)C3)cc2)C[C@@H]1C (stereo partly drawn) [Compound 7a, 3-((1R,4r)-4-(((2S,4R)-2-Methyl-1-propionyl-1,2,3,4-tetrahydroquinolin-4-yl)amino)cyclohexane-1-carboxamide)-N-(4-(((2S,4R)-2-methyl-1-propionyl-1,2,3,4-tetrahydroquinolin-4-yl)amino)phenyl)azetidine-1-carboxamide] | 10.8
CCC(=O)N1c2ccccc2[C@H](Nc2ccc(C(=O)NCC3(N[C@H]4CC[C@H](N[C@@H]5C[C@H](C)N(C(=O)CC)c6ccccc65)CC4)COC3)cc2)C[C@@H]1C [Compound 7j, 4-(((2S,4R)-2-Methyl-1-propionyl-1,2,3,4-tetrahydroquinolin-4-yl)amino)-N-((3-(((1R,4R)-4-(((2S,4R)-2-methyl-1-propionyl-1,2,3,4-tetrahydroquinolin-4-yl)amino)cyclohexyl)amino)oxetan-3-yl)methyl)benzamide] | 64
CCC(=O)N1c2ccccc2[C@H](Nc2ccc(NC(=O)C3CN(C(=O)[C@H]4CC[C@H](N[C@@H]5C[C@H](C)N(C(=O)CC)c6ccccc65)CC4)C3)cc2)C[C@@H]1C [Compound 8c, 1-((1R,4R)-4-(((2S,4R)-2-Methyl-1-propionyl-1,2,3,4-tetrahydroquinolin-4-yl)amino)cyclohexane-1-carbonyl)-N-(4-(((2S,4R)-2-methyl-1-propionyl-1,2,3,4-tetrahydroquinolin-4-yl)amino)phenyl)azetidine-3-carboxamide] | 0.26
CCC(=O)N1c2ccccc2[C@H](Nc2ccc(Cn3cc(C(=O)N[C@H]4CC[C@H](N[C@@H]5C[C@H](C)N(C(=O)CC)c6ccccc65)CC4)nn3)cc2)C[C@@H]1C [Compound 8f, 1-(4-(((2S,4R)-2-Methyl-1-propionyl-1,2,3,4-tetrahydroquinolin-4-yl)amino)benzyl)-N-((1R,4R)-4-(((2S,4R)-2-methyl-1-propionyl-1,2,3,4-tetrahydroquinolin-4-yl)amino)cyclohexyl)-1H-1,2,3-triazole-4-carboxamide] | 1.14
CCC(=O)N1c2ccccc2[C@H](Nc2ccc(C(=O)NCC#CC(=O)NC3CCC(N[C@@H]4C[C@H](C)N(C(=O)CC)c5ccccc54)CC3)cc2)C[C@@H]1C (stereo partly drawn) [Compound 8m, 4-(((2S,4R)-2-Methyl-1-propionyl-1,2,3,4-tetrahydroquinolin-4-yl)amino)-N-(4-(((1R,4r)-4-(((2S,4R)-2-methyl-1-propionyl-1,2,3,4-tetrahydroquinolin-4-yl)amino)cyclohexyl)amino)-4-oxobut-2-yn-1-yl)benzamide] | 0.11

The next lines start with the values.

IC90 [nM] | SMILES
4.31 | CCC(=O)N1c2ccccc2[C@H](Nc2ccc(NC(=O)CCNS(=O)(=O)c3ccc(N[C@@H]4C[C@H](C)N(C(=O)CC)c5ccccc54)cc3)cc2)C[C@@H]1C [Compound 6e, N-(4-(((2S,4R)-2-Methyl-1-propionyl-1,2,3,4-tetrahydroquinolin-4-yl)amino)phenyl)-3-((4-(((2S,4R)-2-methyl-1-propionyl-1,2,3,4-tetrahydroquinolin-4-yl)amino)phenyl)sulfonamide)propanamide]
0.11 | CCC(=O)N1c2ccccc2[C@H](Nc2ccc(C(=O)c3cnc4n3CCN(C(=O)c3ccc(N[C@@H]5C[C@H](C)N(C(=O)CC)c6ccccc65)cc3)C4)cc2)C[C@@H]1C [Compound 6f, 1,1′-((2S,2'S,4R,4R)-(((5,6,7,8-Tetrahydroimidazo[1,2-a]pyrazine-3,7-dicarbonyl)bis(4,1-phenylene))bis(azanediyl))bis(2-methyl-3,4-dihydroquinoline-4,1(2H)-diyl))bis(propan-1-one)]
7 | CCC(=O)N1c2ccccc2[C@H](Nc2ccc(NC(=O)C3CN(C(=O)N[C@H]4CC[C@H](N[C@@H]5C[C@H](C)N(C(=O)CC)c6ccccc65)CC4)C3)cc2)C[C@@H]1C [Compound 7c, N^1-((1R,4r)-4-(((2S,4R)-2-Methyl-1-propionyl-1,2,3,4-tetrahydroquinolin-4-yl)amino)cyclohexyl)-N^3-(4-(((2S,4R)-2-methyl-1-propionyl-1,2,3,4-tetrahydroquinolin-4-yl)amino)phenyl)azetidine-1,3-dicarboxamide]
3.2 | CCC(=O)N1c2ccccc2[C@H](Nc2ccc(NC(=O)COC(=O)N[C@H]3CC[C@H](N[C@@H]4C[C@H](C)N(C(=O)CC)c5ccccc54)CC3)cc2)C[C@@H]1C [Compound 7f, 2-((4-(((2S,4R)-2-Methyl-1-propionyl-1,2,3,4-tetrahydroquinolin-4-yl)amino)phenyl)amino)-2-oxoethyl ((1R,4R)-4-(((2S,4R)-2-methyl-1-propionyl-1,2,3,4-tetrahydroquinolin-4-yl)amino)cyclohexyl)carbamate]
7.56 | CCC(=O)N1c2ccccc2[C@H](Nc2ccc(NC(=O)c3coc(N[C@H]4CC[C@H](N[C@@H]5C[C@H](C)N(C(=O)CC)c6ccccc65)CC4)n3)cc2)C[C@@H]1C [Compound 7g, 2-(((1R,4R)-4-(((2S,4R)-2-Methyl-1-propionyl-1,2,3,4-tetrahydroquinolin-4-yl)amino)cyclohexyl)amino)-N-(4-(((2S,4R)-2-methyl-1-propionyl-1,2,3,4-tetrahydroquinolin-4-yl)amino)phenyl)oxazole-4-carboxamide]
13.9 | CCC(=O)N1c2ccccc2[C@H](Nc2ccc(NC(=O)COCC(=O)NC3CCC(N[C@@H]4C[C@H](C)N(C(=O)CC)c5ccccc54)CC3)cc2)C[C@@H]1C (stereo partly drawn) [Compound 8b, N-((1R,4r)-4-(((2S,4R)-2-Methyl-1-propionyl-1,2,3,4-tetrahydroquinolin-4-yl)amino)cyclohexyl)-2-(2-((4-(((2S,4R)-2-methyl-1-propionyl-1,2,3,4-tetrahydroquinolin-4-yl)amino)phenyl)amino)-2-oxyethoxy)acetamide]
